Here are results for five compounds from article PMC9655001, “Isolation and Identification of Antioxidative Peptide from Goose Liver Hydrolysate to Ameliorate Alcohol-Mediated Oxidative Stress Damage in HHL-5 Hepatocytes” (Molecules, 2022).

The conditions of data set [1]: cited from earlier work. The source says: Typically, oligopeptides containing 2 to 10 amino acid residues are considered to have a higher antioxidant activity compared with their parent protein [14]. Free radicals, linked to oxidative stress, are highly reactive with other molecules, including vital DNA and proteins, the destruction of which can damage or kill cells. Among the many free radicals, the ∙OH radical is commonly considered as one of the most harmful highly react ...

A short description of data set [2]: Fe^2+ chelating ability. The following applies: 1 mg/mL, ferrozine, 10 min room temperature, absorbance 562 nm, mean ± SD. The protocol:
(§1) The antioxidant activity of the target peptides was evaluated by detecting the hydroxyl radical scavenging activity (∙OH), DPPH radical scavenging activity, and Fe^2+ chelating ability; the method was performed according to Zhu et al. with some modifications.
Measurement of the Fe^2+ chelating ability. Briefly, 1 mL of LPLPFP was mixed with 0.05 mL of FeCl2 (2 mmol/L) and 0.2 mL of ferrozine (5 mmol/L). The mixture was vortexed and kept at room temperature for 10 min prior to the measurement of the absorbance at 562 nm (As). The control (Ac) contained everything except using deionized water instead of LPLPFP. The chelating ability was calculated according to the equation Fe^2+chelating ability (%) = (Ac − As) ÷ Ac × 100% where As and Ac represent the absorbance of the sample and the control groups. BHT was used as a positive control.

A short description of data set [3]: DPPH radical scavenging activity. The following applies: 1 mg/mL, 0.2 mmol/L DPPH, 30 min room temperature, absorbance 517 nm, mean ± SD. On the procedure: as §1
Measurement of the DPPH radical scavenging activity. One mL of the LPLPFP (dissolved in deionized water) was mixed with 1 mL of 0.2 mmol/L DPPH (in 95% ethanol) as the sample group; 1 mL of deionized water was mixed with 1 mL of ethanol (95%) as the blank group; and 1 mL of 0.2 mmol/L DPPH was mixed with 1 mL of ethanol (95%) as the control group. The mixture was agitated using a vortex and incubated for 30 min at room temperature, protected from light, and then the absorbance at 517 nm was measured. The scavenging activity of LPLPFP and BHT was calculated using the following equation:DPPH radical scavenging activity (%) = 1 − [ (As − Ac) ÷ (Ab − Ac)] × 100% where As, Ac, and Ab represent the absorbance of the sample, the control, and the blank groups, respectively. BHT was used as a positive control.
For orientation: Loss of DPPH colour is used to gauge radical scavenging.

The nature of data set [4]: ∙OH radical scavenging activity. The following applies: 1 mg/mL, 37 °C 60 min, absorbance 536 nm, mean ± SD. The protocol: as §1
Measurement of the ∙OH radical scavenging activity. The sample group was a mixture of 0.6 mL of 1, 10-phenanthroline monohydrate (5 mmol/L) and 0.4 mL of phosphate buffer (0.2 M, pH 7.4), and then 0.6 mL of LPLPFP (1 mg/mL), 0.6 mL of EDTA (15 mmol/L), and 0.6 mL of FeSO4 (5 mmol/L) were mixed thoroughly. After mixing, 0.8 mL of H2O2 (0.1%) was added and incubated at 37 °C for 60 min. Afterward, the mixture absorbance was measured at 536 nm with the multifunctional microplate reader. The control group contained the same solutions as the sample group, except deionized water was used instead of the sample. The blank group contained the same solution as the control group, except deionized water was used instead of H2O2. The results were determined according to the equation. hydroxyl radical scavenging activity (%) = (As − Ac) ÷ (Ab − Ac) × 100% where As, Ac, and Ab represent the absorbance of the sample and the control and blank groups, respectively. BHT was used as a positive control.

Data set [5] has as its system pepsin and trypsin. Kind of data set: Pepsin-trypsin simulated GI digestion stability. The class given is in vitro ADME. As to conditions: 400 μg/mL peptide; simulated gastric juice (pepsin, pH 3.0) 37 °C 2 h, then simulated intestinal fluid (trypsin, bile salt) 2 h; read-out: retained hepatoprotective activity (ALT, AST, MDA) in HHL-5 model. On the procedure: The stability of LPLPFP in response to pepsin and trypsin in the simulation of GI digestion in vitro was examined based on Xie et al.. A 1 L ultrapure water solution containing 2 g of NaCl and 3.2 g of pepsin (3000 U/mg protein) with a pH of 3.0 (adjusted with a 6 mol/L HCl solution), was configured as simulated gastric juice. In addition, 0.68 g of potassium dihydrogen phosphate, 7.7 mL of 0.2 mol/L NaOH solution, 1 g of trypsin (285 U/mg protein), and 6 g of bile salt were added and dissolved in 70 mL of ultrapure water with a pH of 7.6 (adjusted with a 0.2 mol/L NaOH solution) and the volume was filled with ultrapure water up to 1 L (as simulated intestinal fluid). The 400 μg/mL of peptide solution at pH 3.0 (adjusted with a 1 mol/L HCl solution) and 5 mL of simulated gastric juice was mixed and shaken at 37 °C for 2 h to simulate gastric digestion, then the mixture was terminated by being heated at 100 °C for 10 min, the pH was adjusted to 7.2 with a 0.2 mol/L NaOH solution, and 5 mL of simulated intestinal juice was added to the solution, and the same conditions were used for simulating intestinal digestion. Finally, the digestive liquid was transferred to the ultrafiltration centrifuge tube (1 kDa) and centrifuged at 4 °C, 8500× g for 20 min; the filtered solutions were desalted by a polar enhanced polymer (PEP) column (500 mg/6 mL) and dried in a vacuum freeze-dryer.

Data set [6] concerns HHL-5 hepatocytes. Briefly: H2O2 level in alcohol-mediated HHL-5 hepatocytes. Format: cell-based, human. The following applies: alcohol alone (EtOH model group).
Procedure: The cell suspension was inoculated into 96-well plates (4 × 10^3 per well) and added to the culture medium containing: DMEM-F12 (1:1, HyClone, Logan, UT, USA), 10% FBS (Gibco, New York, NY, USA), 1% P/S (100 U/L), 15 mmol/L of HEPES, and 2.5 mmol/L of L-glutamine, then the plates with cells were placed in a 5% CO2 humidified atmosphere at 37 °C for 24 h. […] Furthermore, HHL-5 hepatocytes were cultured with different concentrations of GLHP (100 μg/mL, 200 μg/mL, 300 μg/mL, 400 μg/mL, and 500 μg/mL) to evaluate the cytotoxicity of GLHP, as described above. The ability of GLHP to protect HHL-5 hepatocytes was evaluated. […] In the CTRL group, a culture medium supplemented with an equal volume of the PBS was added and incubated for 12 h, and the culture medium was then substituted with an equal volume of the PBS and incubated for 48 h. Finally, the culture media and cells were collected for further analysis.
The subject of data set [7] is HHL-5 hepatocytes. Briefly: Cell viability by Cell Counting Kit-8. The protocol:
Furthermore, HHL-5 hepatocytes were cultured with different concentrations of GLHP (100 μg/mL, 200 μg/mL, 300 μg/mL, 400 μg/mL, and 500 μg/mL) to evaluate the cytotoxicity of GLHP, as described above. The ability of GLHP to protect HHL-5 hepatocytes was evaluated. […] In the CTRL group, a culture medium supplemented with an equal volume of the PBS was added and incubated for 12 h, and the culture medium was then substituted with an equal volume of the PBS and incubated for 48 h. Finally, the culture media and cells were collected for further analysis.
The Cell Counting Kit-8 (CCK-8, Beijing Solarbio Science and Technology Co., Ltd., Beijing, China) was used to assess the HH-5 cell viability; the testing procedures were performed according to the manufacturer’s protocol. Adherent cells in 96-well culture plates were treated and then incubated with a CCK solution for 2 h; the absorbance was detected at a wavelength of 450 nm with the multifunctional microplate reader.
On the technique in general: Formazan colour is commonly taken as a measure of viable cells.

Data set [8] deals with HHL-5 hepatocytes. Kind of data set: MDA level in model of alcohol-mediated HHL-5 hepatocytes damage. As to conditions: alcohol 500 mmol/L, 48 h, no peptide pre-treatment (model group). The class given is cell-based, human. On the procedure: (§2) Cells were collected with PBS, the activity of ALT (C009-2-1), AST (C0010-2-1), and MDA (A003-1) in cell supernatant and the SOD (A001-3), GSH-Px (A005), CAT (A007-1-1), and ROS (E004-1-1) in the cells were measured using corresponding assay kits (Nanjing Jiancheng Biotechnology Institute, Nanjing, China) according to the manufacturer’s instructions.
MDA: 0.1 mL of sample was mixed with 0.1 mL of reagent one, 3 mL of reagent two, and 1 mL of reagent three in the 10 mL centrifuge tube. Then, the centrifuge tube was centrifuged at 4 °C, 3500× g for 10 min after being heated in a boiling water bath for 40 min. The absorbance value of 200 μL of the supernatant was measured at a 532 nm wavelength by a multifunctional microplate reader.

Data set [9] relates to HHL-5 hepatocytes. Kind of data set: ROS level in alcohol-mediated HHL-5 hepatocytes (DCFH-DA). Format: cell-based, human. The following applies: alcohol alone (EtOH model group). On the procedure:
as §2
ROS: A DCFH-DA probe was added directly to the serum-free medium: DCFH-DA was generally diluted with a serum-free medium at a final concentration of 10 µM at 1:1000. After removing the culture medium, an appropriate volume of diluted DCFH-DA was added. The volume added should be sufficient to cover the cells. Usually, no less than 1 mL of diluted DCFH-DA is added to one well of a 6-well plate. A sample of cells without a probe and with a medium only was set as negative for the control. Positive control: take a sample of cells with a probe and add reactive oxygen species to induce the cells. The cells were incubated at 37 °C for 20 min […] (mixed upside down every 5 min to make full contact between the probe and cell). […] In general, an obvious green fluorescence can be observed in the positive control cells after 30 min of stimulation. […] It can also be detected according to FITC fluorescence detection conditions. The results were expressed as fluorescence values.

In data set [10] the test system is HHL-5 hepatocytes. Briefly: GSH-Px activity in alcohol-mediated HHL-5 hepatocytes. As to conditions: alcohol alone (EtOH model group). Format: cell-based, human. The protocol: as §2
GSH-Px: 0.2 mL of sample was mixed with 0.2 mL of […] and performed at 37 °C for 5 min. Then, 0.1 mL of reagent one was added and performed at 37 °C for 5 min. Subsequently, the miscible liquids were centrifuged at 4 °C, 3500× g for 10 min. One mL of supernatant was mixed with 1 mL of reagent three, 0.25 mL of reagent four, and 0.05 mL of reagent five and performed at room temperature for 15 min. The absorbance value was measured at a 412 nm wavelength by a multifunctional microplate reader.

Data set [11] deals with HHL-5 hepatocytes. Kind of data set: SOD activity in alcohol-mediated HHL-5 hepatocytes. The class given is cell-based, human. The following applies: alcohol alone (EtOH model group). On the procedure: as §2
SOD: 20 μL of sample was mixed with 20 μL enzyme working liquid and 200 μL of substrate application solution. Then, miscible liquids were performed at 37 °C for 20 min. The absorbance values of the miscible liquids were measured at a 450 nm wavelength by a multifunctional microplate reader.

The test system of data set [12] is HHL-5 hepatocytes. Briefly: CAT activity in alcohol-mediated HHL-5 hepatocytes. The following applies: alcohol alone (EtOH model group). Format: cell-based, human. On the procedure: as §2
CAT: 0.05 mL of sample was mixed with 1.0 mL reagent one, 0.1 mL reagent two and performed at 37 °C for 1 min. Then, 1.0 mL reagent three and 0.1 mL reagent four were mixed with the miscible liquids. The absorbance value was measured at 405 nm wavelength by a multifunctional microplate reader.

Data set [13] has as its system HHL-5 hepatocytes. Kind of data set: AST level in model of alcohol-mediated HHL-5 hepatocytes damage. The class given is cell-based, human. As to conditions: alcohol 500 mmol/L, 48 h, no peptide pre-treatment (model group). On the procedure: as §2
ALT and AST: 5 μL of sample was mixed with 20μL of ALT/AST matrix solution and the reaction was performed at 37 °C for 30 min. Then, 20 μL of 2, 4-dinitrophenylhydrazine solution was added and the reaction was performed at 37 °C for 20 min. Finally, 200 μL of sodium hydroxide solution (0.4 mol/L) was added and the reaction was performed at room temperature for 15 min. The absorbance value was measured at a 510 nm wavelength by a multifunctional microplate reader.

Where two headings read alike, the source gives them in different places. Marks after values point to notes of the source that are not given here. Ends that are not written are not given here. Peptide text beside a SMILES is read from it.

On to Gly-Lys-Phe-Asn-Val, for which the “Fe^2+ chelating ability (source: scavenging rate of Fe^2+)” value in data set [1] (1 mg/mL ref 16) is given as 63.20%.
Turning to `Cc1cc(C(C)(C)C)c(O)c(C(C)(C)C)c1` [BHT], in data set [2], the “Fe^2+ Chelating Ability (%)” value is given as 14.39 ± 2.46 ^b %. Also, the “DPPH Radical Scavenging Activity (%)” value in [3] was 90.56 ± 1.73 ^b %. Also, in [4], the “∙OH Radical Scavenging Activity (%)” value is listed as 79.38 ± 2.03 ^b %.
`CC(C)C[C@H](NC(=O)[C@@H]1CCCN1C(=O)[C@@H](N)CC(C)C)C(=O)N1CCC[C@H]1C(=O)N[C@@H](Cc1ccccc1)C(=O)N1CCC[C@H]1C(=O)O` [LPLPFP, Leu-Pro-Leu-Pro-Phe-Pro] (H-LPLPFP-OH): in data set [5], the “resistance to pepsin-trypsin simulated GI digestion” value is “strong resistance”.
As to NPPKFD, the “Fe^2+ chelating ability (source: scavenging rate of Fe^2+)” value in data set [1] (1 mg/mL ref 3) is on record as 66.92%.
Consider `CCO` [alcohol, anhydrous ethanol], for which the “level of H2O2 after stimulation with alcohol” value in [6] was determined as 43860 ± 3570 µM. In data set [7] (500 mmol/L alcohol, 48 h, CCK-8, mean ± SD, at least triplicates), the “viability of HHL-5 hepatocytes” value was “approximately 49.28 ± 5.12%”. Further, in data set [7] (48 h incubation, CCK-8), the “median lethal dose of alcohol for HHL-5 hepatocytes (LD50)” value was determined as 500 mmol/L. Moreover, the “level of MDA in the EtOH group” value in [8] was 2.436e+07 ± 2.85e+06 µM. The “level of ROS after stimulation with alcohol” value in [9] turned out to be 95.23 ± 6.54 U/mg prot. Besides, the “level of GSH-Px after administration of alcohol” value in data set [10] amounted to 49.26 ± 4.82 U/mg prot. For the same compound, the “level of SOD after administration of alcohol” value in [11] stood at 31.28 ± 4.53 U/mg prot. Further, in data set [12], the “level of CAT after administration of alcohol” value was 24.87 ± 3.28 U/mg prot. For the same compound, the “level of AST in the EtOH group” value in data set [13] stood at 376.57 ± 32.83 U/L.
